Columns and labels:
[1] = Highest frequency of moderate liver toxicity observed during clinical trials, expressed as a percentage. [column '% BIOL' in source]; details: human
[2] = human, serum, 4383 h
[3] = human
[4] = Times to onset, minimal and maximal, observed in the indexed observations. [column 'DELAI' in source]; details: human
[5] = human; remark: listed apart in the source
[6] = human, serum
[7] = human; remark: listed apart in the source
[8] = human, serum; remark: listed apart in the source
[9] = human; remark: listed apart in the source
[10] = human; remark: listed apart in the source
[11] = Highest frequency of acute liver toxicity observed during clinical trials, expressed as a percentage. [column '% AIGUE' in source]; details: human
[12] = human; remark: listed apart in the source
[13] = human; remark: listed apart in the source
[14] = human; remark: listed apart in the source
[15] = human; remark: listed apart in the source
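Wherever Hepatotoxicity (association with vascular disease) is given: count of indexed literature references reporting vascular liver injury in humans, e.g. peliosis hepatitis, hepatic veno-occlusive disease or Budd-Chiari syndrome.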
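Wherever Hepatotoxicity (benign tumour) is given: value is a count of indexed literature references citing a benign tumour confirmed by histopathology.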
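Wherever Hepatotoxicity (choleostasis) is given: human cholestatic liver injury, shown by histopathology or by peak ALT or AST elevation over alkaline phosphatase ratio below 2, value counts indexed literature reports.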
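Wherever Hepatotoxicity (chronic liver disease) is given: chronic liver injury confirmed by histopathology or persistently raised serum aminotransferase activity beyond 6 months, value given as the count of indexed literature references.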
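Wherever Hepatotoxicity (cirrhosis) is given: value is a count of indexed literature references reporting cirrhosis confirmed by histopathology.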
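Wherever Hepatotoxicity (cytolytic) is given: human cytolytic liver injury, shown by histopathology or by a ratio above 5 of peak ALT or AST elevation to alkaline phosphatase elevation, value counts indexed references.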
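Wherever Hepatotoxicity (granulomatous hepatitis) is given: value is a count of indexed literature references reporting granulomatous liver disease confirmed by histopathology.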
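Wherever Hepatotoxicity (malignant tumour) is given: malignant tumour confirmed by histopathology, value gives the count of indexed literature references reporting it.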
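Wherever Hepatotoxicity (severe hepatitis) is given: human clinical data: severe hepatitis, meaning potentially life-threatening liver failure or clinically observed cases, the value counts how many indexed literature references report it.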
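Wherever Hepatotoxicity (steatosis) is given: steatosis confirmed by histopathology, value is the count of indexed references.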

Row | Structure (SMILES) | Hepatotoxicity (moderate) [1] | Hepatotoxicity (chronic liver disease) [2] | Hepatotoxicity (benign tumour) [3] | Hepatotoxicity (time to onset) [4] | Hepatotoxicity (steatosis) [5] | Hepatotoxicity (moderate) [6] | Hepatotoxicity (cytolytic) [7] | Hepatotoxicity (acute) [8] | Hepatotoxicity (choleostasis) [9] | Hepatotoxicity (severe hepatitis) [10] | Hepatotoxicity (acute) [11] | Hepatotoxicity (malignant tumour) [12] | Hepatotoxicity (association with vascular disease) [13] | Hepatotoxicity (cirrhosis) [14] | Hepatotoxicity (granulomatous hepatitis) [15]
1 | CCN(CC)CCN1C(=O)CN=C(c2ccccc2F)c2cc(Cl)ccc21 [FLURAZEPAM] | 0% | 0 | 0 | 2 weeks - 6 months | 1 | 0 | 0 | 3 | 3 | 0 | 0% | 0 | 0 | 0 | 0
2 | Nc1ccn([C@@H]2O[C@H](CO)[C@@H](O)C2(F)F)c(=O)n1 [GEMCITABINE] | 90.9% | 0 | 0 | 1 cure - 7 cures | 0 | 13 | 6 | 12 | 3 | 2 | 45.5% | 0 | 2 | 0 | 0
3 | CO/N=C1\CN(c2nc3c(cc2F)c(=O)c(C(=O)O)cn3C2CC2)CC1CN (stereo not given) [GEMIFLOXACIN] | 0.3% | 0 | 0 | 6 days | 0 | 4 | 0 | 0 | 0 | 0 | 0% | 0 | 0 | 0 | 0
4 | CN1C2CCCC1CC(NC(=O)c1nn(C)c3ccccc13)C2 (stereo not given) [GRANISETRON] | 7.9% | 0 | 0 | 1 week | 0 | 2 | 0 | 0 | 0 | 0 | 0% | 0 | 0 | 0 | 0
5 | N=C(N)NCC1COc2ccccc2O1 (stereo not given) [GUANOXAN] | 30% | 0 | 0 | 2 months - 1 year | 0 | 2 | 1 | 2 | 2 | 1 | 10% | 0 | 0 | 0 | 0
6 | NN [HYDRAZINE] | 0% | 0 | 0 | 3.5 months | 0 | 0 | 1 | 1 | 0 | 1 | 0% | 0 | 0 | 0 | 0
7 | C[C@]12CCC(=O)C=C1CC[C@@H]1[C@@H]2[C@@H](O)C[C@@]2(C)[C@H]1CC[C@]2(O)C(=O)CO [HYDROCORTISONE] | 25% | 0 | 0 | 2 months | 10 | 1 | 0 | 0 | 0 | 1 | 0% | 0 | 0 | 0 | 0
8 | CCN(CCO)CCCC(C)Nc1ccnc2cc(Cl)ccc12 (stereo not given) [HYDROXYCHLOROQUINE] | 11.1% | 0 | 0 | 1 year | 0 | 1 | 1 | 2 | 1 | 1 | 5.3% | 0 | 0 | 0 | 0
9 | CC(C)Cc1ccc(CC(=O)O)cc1 [IBUFENAC] | 40% | 0 | 0 | 4 months | 0 | 2 | 3 | 3 | 1 | 1 | 5% | 0 | 0 | 0 | 0
10 | O=c1[nH]c(=O)n([C@H]2C[C@H](O)[C@@H](CO)O2)cc1I [IDOXURIDINE] | 3.6% | 0 | 0 | 1 week - 2 weeks | 0 | 3 | 0 | 1 | 1 | 0 | 0% | 0 | 0 | 0 | 0
11 | CCN(CC)CCn1c(-c2ccccc2)noc1=N [IMOLAMINE] | 0% | 1 | 0 | 2 months | 0 | 0 | 0 | 0 | 0 | 0 | 0% | 0 | 0 | 0 | 0

From ChEMBL document CHEMBL3137667, “[Drug-induced liver injury; fourteenth updated edition of the bibliographic database of liver injuries and related drugs]” (Gastroenterol Clin Biol, 2004)
